Experimental data taken from patent US20120152149A1, “USE OF 1,3-DIOLS AS BIOCIDES” (BASF SE, priority 2009, published 2012).
Read-outs that look alike come from different tables or passages of the source.

Columns and labels:
Format in all cases: cell-based
A. niger ATCC 16404 [1] = assay: Preservation stress test, example formulation 1 (standard emulsion O/W); conditions: 1% active substance
How it was run: (§1)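 O/W emulsion containing 1% diol (water as placebo), inoculated individually or as mixed culture at 10^5-10^6 CFU/g and held 28 d at 20-25° C. Surviving counts at 0, 2, 7, 14 and 28 d after dilution in neutralising phosphate buffer pH 7.4 with Tween 80/lecithin; expressed as log reduction from initial count.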

C. albicans ATCC 10231 [2] = assay: as above; conditions: 1% active substance
How it was run: as §1

E. coli NCIMB 8545 = assay: Microstatic activity, MIC in tryptone soy broth; conditions: Escherichia coli, NCIMB8545, 30° C., 48 hours
How it was run: (§2)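 Diols dissolved at 40 wt% in propylene glycol at 60 °C, diluted in tryptone soy broth to 400 000–3125 ppm, then inoculated (0.1 ml organism per 5 ml). Bacteria incubated 48 h at 30 °C, fungi 5 days at 25 °C. MIC taken as a range between the last concentration showing visible growth/clouding and the first without.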

S. aureus NCIMB 9578 = assay: Microstatic activity, MIC in tryptone soy broth; conditions: Staphylococcus aureus, NCIMB9578, 30° C., 48 hours
How it was run: as §2

[3] = test system: P. aeruginosa NCIMB 10421; assay: Microstatic activity, MIC in tryptone soy broth; conditions: Pseudomonas aeruginosa, NCIMB10421, 30° C., 48 hours, lower limit of MIC range, read-out: MIC value (ppm of diol), from
How it was run: as §2

P. vulgaris NCIMB 4175 = assay: Microstatic activity, MIC in tryptone soy broth; conditions: Proteus vulgaris, NCIMB4175, 30° C., 48 hours
How it was run: as §2

[4] = test system: series of tested microorganisms (bacteria and fungi); assay: Microstatic activity, highest MIC from the series of tested microorganisms; conditions: highest measured MIC from the series of tested microorganisms; lower limit; read-out: Maximum MIC value (ppm of diol), from
How it was run: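 Diol tested for biocidal effect against a panel of bacteria and fungi; MIC taken as lowest concentration visibly hindering growth versus diol-free sample. Each MIC is a range between the next higher positive-test concentration and the first negative-test concentration; the series value is the highest MIC across organisms.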

A. niger ATCC 16404 [5] = assay: Preservation stress test, example formulation 2 (roll-on deodorant formulation); conditions: 1% active substance
C. albicans ATCC 10231 [6] = assay: as above; conditions: 1% active substance
E. coli ATCC 10536 = assay: as above; conditions: 1% active substance
P. aeruginosa ATCC 15442 = assay: as above; conditions: 1% active substance
S. aureus ATCC 6538 = assay: as above; conditions: 1% active substance
[7] = lower limit of MIC range, read-out: MIC value (ppm of diol), from
[8] = upper limit of MIC range, read-out: MIC value (ppm of diol), to

Question: How did the “Microbicidal activity given as logarithmic reduction in germ count” value (A. niger ATCC 16404 [1]; 48 h) turn out when `CCCCCC(CO)(CO)CCC` [PPPD, 2-pentyl-2-propylpropane-1,3-diol] was run?
Answer: 0 log. Red.

Question: And the “Microbicidal activity given as logarithmic reduction in germ count” value (A. niger ATCC 16404 [1]; 7 d)?
Answer: 1 log. Red.

Question: What about the “Microbicidal activity given as logarithmic reduction in germ count” value (A. niger ATCC 16404 [1]; 14 d) of the same compound?
Answer: 1 log. Red.

Question: And the “Microbicidal activity given as logarithmic reduction in germ count” value (A. niger ATCC 16404 [1]; 28 d)?
Answer: 1 log. Red.

Question: What about the “Microbicidal activity given as logarithmic reduction in germ count” value (C. albicans ATCC 10231 [2]; 48 h) of the same compound?
Answer: ≧3 log. Red.

Question: And the “Microbicidal activity given as logarithmic reduction in germ count” value (C. albicans ATCC 10231 [2]; 7 d)?
Answer: 5 log. Red.

Question: What about the “Microbicidal activity given as logarithmic reduction in germ count” value (C. albicans ATCC 10231 [2]; 14 d) of the same compound?
Answer: 5 log. Red.

Question: And the “Microbicidal activity given as logarithmic reduction in germ count” value (C. albicans ATCC 10231 [2]; 28 d)?
Answer: 5 log. Red.

Question: What about the MIC (E. coli NCIMB 8545; [7]) of the same compound?
Answer: > 50 mg/mL

Question: What about the MIC (E. coli NCIMB 8545; [8]) of the same compound?
Answer: ≤ 100 mg/mL

Question: And the MIC (S. aureus NCIMB 9578; [7])?
Answer: > 50 mg/mL

Question: What about the MIC (S. aureus NCIMB 9578; [8]) of the same compound?
Answer: ≤ 100 mg/mL

Question: And the MIC [3]?
Answer: > 100 mg/mL

Question: What about the MIC (P. vulgaris NCIMB 4175; [7]) of the same compound?
Answer: > 25 mg/mL

Question: What about the MIC (P. vulgaris NCIMB 4175; [8]) of the same compound?
Answer: ≤ 50 mg/mL

Question: What about the MIC [4] of the same compound?
Answer: > 100 mg/mL

Question: What about the “Microbicidal activity given as logarithmic reduction in germ count” value (A. niger ATCC 16404 [5]; 48 h) of the same compound?
Answer: 0 log. Red.

Question: And the “Microbicidal activity given as logarithmic reduction in germ count” value (A. niger ATCC 16404 [5]; 7 d)?
Answer: 0 log. Red.

Question: What about the “Microbicidal activity given as logarithmic reduction in germ count” value (A. niger ATCC 16404 [5]; 14 d) of the same compound?
Answer: 0 log. Red.

Question: And the “Microbicidal activity given as logarithmic reduction in germ count” value (C. albicans ATCC 10231 [6]; 48 h)?
Answer: 0 log. Red.

Question: And the “Microbicidal activity given as logarithmic reduction in germ count” value (C. albicans ATCC 10231 [6]; 7 d)?
Answer: 0 log. Red.

Question: And the “Microbicidal activity given as logarithmic reduction in germ count” value (C. albicans ATCC 10231 [6]; 14 d)?
Answer: 0 log. Red.

Question: What about the “Microbicidal activity given as logarithmic reduction in germ count” value (E. coli ATCC 10536; 48 h) of the same compound?
Answer: ≧3 log. Red.

Question: What about the “Microbicidal activity given as logarithmic reduction in germ count” value (E. coli ATCC 10536; 7 d) of the same compound?
Answer: 5 log. Red.

Question: What about the “Microbicidal activity given as logarithmic reduction in germ count” value (E. coli ATCC 10536; 14 d) of the same compound?
Answer: 5 log. Red.

Question: And the “Microbicidal activity given as logarithmic reduction in germ count” value (E. coli ATCC 10536; 28 d)?
Answer: 5 log. Red.

Question: What about the “Microbicidal activity given as logarithmic reduction in germ count” value (P. aeruginosa ATCC 15442; 48 h) of the same compound?
Answer: 5 log. Red.

Question: What about the “Microbicidal activity given as logarithmic reduction in germ count” value (P. aeruginosa ATCC 15442; 7 d) of the same compound?
Answer: 5 log. Red.

Question: What about the “Microbicidal activity given as logarithmic reduction in germ count” value (P. aeruginosa ATCC 15442; 14 d) of the same compound?
Answer: 5 log. Red.

Question: What about the “Microbicidal activity given as logarithmic reduction in germ count” value (P. aeruginosa ATCC 15442; 28 d) of the same compound?
Answer: 5 log. Red.

Question: What about the “Microbicidal activity given as logarithmic reduction in germ count” value (S. aureus ATCC 6538; 48 h) of the same compound?
Answer: 5 log. Red.

Question: What about the “Microbicidal activity given as logarithmic reduction in germ count” value (S. aureus ATCC 6538; 7 d) of the same compound?
Answer: 5 log. Red.

Question: And the “Microbicidal activity given as logarithmic reduction in germ count” value (S. aureus ATCC 6538; 14 d)?
Answer: 5 log. Red.

Question: What about the “Microbicidal activity given as logarithmic reduction in germ count” value (S. aureus ATCC 6538; 28 d) of the same compound?
Answer: 5 log. Red.
